GI50 and TGI data for twelve compounds are collected here from PubChem BioAssay (NCI).

The structures appear in SMILES notation.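 Results reflect a 48-hour exposure of cells in 96-well plates to compound at five concentrations. GI50 marks 50% less growth. TGI: concentration producing complete growth inhibition.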 Some results are limits rather than exact numbers.

Some test systems named below: EKVX NSCLC; MDA-MB-435; NCI-H226 lung; PC-3 prostate; SF-295 CNS; SK-MEL-5 melanoma; HOP-62 NSCLC; K-562 leukemia; MCF7 breast; OVCAR-3 ovarian.
What all share (test): NCI anticancer screen, dose series, 48 h

On to `Clc1ccc(C2CC(c3cccc(Nc4ccncc4)c3)=NN2c2ccc(Cl)cc2)cc1` (stereo unspecified), for which the GI50 with EKVX NSCLC was 1.58 µM; with MDA-MB-435, 1.71 µM; in the assay with NCI-H226 lung it was 12.4 µM; in the assay on PC-3 prostate it was 1.55 µM; with SF-295 CNS, 1.58 µM; in the assay with SK-MEL-5 melanoma it was 1.74 µM. The TGI came out at 3.04 µM with EKVX NSCLC; 3.24 µM with MDA-MB-435; 38.3 µM with NCI-H226 lung; 3.08 µM in the assay on PC-3 prostate; 2.96 µM in the assay on SF-295 CNS; 3.15 µM in the assay on SK-MEL-5 melanoma.
`COc1ccc(C(=O)O[C@H]2CC[C@@]3(C)[C@@H]4CC[C@H]5[C@]6(O)C[C@H](O)[C@@]7(O)[C@@H](CN8C[C@@H](C)CC[C@H]8[C@@]7(C)O)[C@]6(O)C[C@@]53OC24O)cc1OC`: the TGI in the assay on EKVX NSCLC, with HOP-62 NSCLC, with K-562 leukemia, in the assay with MCF7 breast, with MDA-MB-435 and in the assay on NCI-H226 lung was greater than 100 µM each time. Also, the TGI in the assay with OVCAR-3 ovarian, in the assay with PC-3 prostate, in the assay with SF-295 CNS and in the assay with SK-MEL-5 melanoma was greater than 100 µM each time.
Consider `CC[C@@]1(OC(=O)CN(C)C)C(=O)OCc2c1cc1n(c2=O)Cc2cc3c(N)cccc3nc2-1`, for which the GI50 in the assay with EKVX NSCLC is 0.262 µM; in the assay with HOP-62 NSCLC, 0.0119 µM; in the assay with K-562 leukemia, 0.0455 µM; in the assay with MCF7 breast it was 0.0115 µM; in the assay with MDA-MB-435, 0.078 µM; in the assay on NCI-H226 lung it was 0.0233 µM. Besides, the GI50 in the assay with OVCAR-3 ovarian is 0.0383 µM; in the assay on PC-3 prostate, 0.0524 µM. The TGI with EKVX NSCLC is 3.58 µM; in the assay on HOP-62 NSCLC, 0.432 µM; with K-562 leukemia it was greater than 100 µM; in the assay on MCF7 breast, greater than 100 µM; with MDA-MB-435, 0.259 µM; in the assay on NCI-H226 lung, 0.161 µM. Besides, the results for the TGI in the assay on OVCAR-3 ovarian and in the assay with PC-3 prostate were 0.218 µM and greater than 100 µM, respectively.
`Clc1cc2ccccc2c2ccccc12`: the TGI with EKVX NSCLC, with HOP-62 NSCLC, in the assay on K-562 leukemia, in the assay on MCF7 breast, in the assay with MDA-MB-435 and in the assay with NCI-H226 lung was greater than 100 µM each time. For the same compound, the TGI in the assay on OVCAR-3 ovarian, in the assay on PC-3 prostate, in the assay with SF-295 CNS and in the assay with SK-MEL-5 melanoma was greater than 100 µM throughout.
Consider `NC1C=NNC1=O` (stereo unspecified), for which the TGI in the assay with EKVX NSCLC, in the assay with K-562 leukemia, in the assay with SF-295 CNS and in the assay with SK-MEL-5 melanoma was greater than 100 µM throughout.
As for `CCC1C(C#N)=C(O)NC(O)=C1C#N`, the TGI in the assay with EKVX NSCLC, in the assay with HOP-62 NSCLC, in the assay with NCI-H226 lung, in the assay with OVCAR-3 ovarian, with SF-295 CNS and in the assay on SK-MEL-5 melanoma was greater than 100 µM throughout.
With `O=C(O)C(O)(c1ccc(-c2ccccc2)cc1)c1ccc(-c2ccccc2)cc1`, the TGI in the assay with EKVX NSCLC was 70.9 µM; in the assay with HOP-62 NSCLC, 46.3 µM; in the assay with K-562 leukemia, greater than 100 µM; in the assay with MDA-MB-435, 43.7 µM; in the assay with NCI-H226 lung it was 62.6 µM; with OVCAR-3 ovarian it was 30.3 µM. The TGI was 70 µM in the assay on PC-3 prostate, 68.8 µM in the assay on SF-295 CNS and 37.4 µM in the assay on SK-MEL-5 melanoma.
Regarding `C[C@]12Cc3cnc(-c4ccccc4)nc3C[C@@H]1CC[C@@H]1[C@@H]2CC[C@@]2(C)[C@H]1CC[C@]2(C)O`, the TGI is greater than 87.1 µM in the assay on EKVX NSCLC; 41.6 µM in the assay on HOP-62 NSCLC; 29.4 µM in the assay with K-562 leukemia; 76.5 µM with MCF7 breast; greater than 70.4 µM in the assay with MDA-MB-435; 58.1 µM in the assay on NCI-H226 lung. In addition, the TGI in the assay on OVCAR-3 ovarian stood at 54.4 µM; in the assay on PC-3 prostate, 36.3 µM; in the assay with SF-295 CNS it was 52.4 µM; in the assay with SK-MEL-5 melanoma, 42.9 µM.
Take `O=NN1C(c2ccccc2)C2CCCC(C2=O)C1c1ccccc1` (stereo unspecified): the TGI was greater than 79.5 µM in the assay on EKVX NSCLC; 56 µM in the assay on HOP-62 NSCLC; 55.3 µM in the assay on K-562 leukemia; 46.4 µM in the assay with MCF7 breast; 71 µM with NCI-H226 lung; 9.28 µM in the assay with OVCAR-3 ovarian. In addition, the results for the TGI with SF-295 CNS and in the assay with SK-MEL-5 melanoma were greater than 84.2 µM and 35.7 µM, respectively.
As for `COc1ccc(C(=O)NC2=C(Cl)C(=O)c3ccccc3C2=O)cc1`, the TGI is 26.1 µM with EKVX NSCLC; 60.8 µM in the assay with HOP-62 NSCLC; greater than 100 µM in the assay with K-562 leukemia; 17.8 µM in the assay with MCF7 breast; 7.53 µM with MDA-MB-435; 9.32 µM with NCI-H226 lung. In addition, the TGI in the assay with OVCAR-3 ovarian was 6.26 µM; in the assay on PC-3 prostate it was 10.8 µM; in the assay with SF-295 CNS, 13.8 µM; in the assay on SK-MEL-5 melanoma, 4.59 µM.
In the case of `O=C1CCCC/C1=C1/SC(=Nc2ccccc2)C(=Nc2ccccc2)N1c1ccccc1`, the TGI in the assay with HOP-62 NSCLC, in the assay on K-562 leukemia, in the assay on MCF7 breast, in the assay with NCI-H226 lung, with OVCAR-3 ovarian and with SF-295 CNS was greater than 100 µM in each case.
Take `COc1ccc(NC(=S)NNC(=O)c2nsc3ccccc23)cc1`: the TGI was greater than 100 µM in the assay with EKVX NSCLC; greater than 100 µM in the assay on HOP-62 NSCLC; greater than 100 µM in the assay with K-562 leukemia; 52.9 µM in the assay with OVCAR-3 ovarian; greater than 100 µM in the assay with SK-MEL-5 melanoma.
